In US20260028354A1, “TETRAHYDRONAPHTHALENE DERIVATIVES AS ESTROGEN RECEPTOR DEGRADERS” (REGENT OF THE UNIVERSITY OF MICHIGAN, priority 2022, published 2026):
Structures can show the parent of a compound that is named as a salt. Where two headings read alike, the source gives them in different places.

Experiments:
[1] = molecular target: ER in MCF-7 cells (Homo sapiens (Human), UniProt P03372); assay: In-cell Western (ICW) ER degradation assay in MCF-7 cells; assay type: cell-based; settings: for DC50: MCF-7, ER degradation, read-out: MCF7 DC50
From the text: (§1) In-cell Western (ICW) assays in MCF-7 and T47D cell lines.
(§2) Day 3: After 16 hrs of compounds treatment, cells were fixed by 4% PFA and permeabilized with elution buffer (0.1% Triton X-100 in 1% PBS Solution). Subsequently, cells were blocked with Intercept (PBS) Blocking Buffer (Li-COR, Odyssey Blocking Buffer), and were stained with ER (1:500, Cell signaling) primary antibody for overnight at cold room.
(§3) Day 4: Remove the buffer, add IRDye 800CW Goat anti-Rabbit IgG Secondary Antibody (1:2000) and CellTag 700 Stain (1:500) in Intercept (PBS) Blocking Buffer. Finally, cell plate is placed in incubator to dry. Image and signal were captured on Odyssey® DLx Imaging System.

[2] = molecular target: ER in T47D cells (Homo sapiens (Human), UniProt P03372); assay: In-cell Western (ICW) ER degradation assay in T47D cells; assay type: cell-based; settings: for DC50: ER degradation
From the text: as §1, §2, §3

[3] = MCF7, read-out: MCF7 Dmax, MCF-7, maximal ER degradation, 16 hrs treatment
[4] = maximal ER degradation, 16 hrs treatment
[5] = maximal ER degradation, 16 hrs treatment, read-out: T47D Dmax
[6] = read-out: T47D Dmax, T47D, maximal ER degradation, 16 hrs treatment
[7] = MCF7, MCF-7, maximal ER degradation, 16 hrs treatment, read-out: MCF7 Dmax

Chain of ER in T47D cells (P03372 whole entry): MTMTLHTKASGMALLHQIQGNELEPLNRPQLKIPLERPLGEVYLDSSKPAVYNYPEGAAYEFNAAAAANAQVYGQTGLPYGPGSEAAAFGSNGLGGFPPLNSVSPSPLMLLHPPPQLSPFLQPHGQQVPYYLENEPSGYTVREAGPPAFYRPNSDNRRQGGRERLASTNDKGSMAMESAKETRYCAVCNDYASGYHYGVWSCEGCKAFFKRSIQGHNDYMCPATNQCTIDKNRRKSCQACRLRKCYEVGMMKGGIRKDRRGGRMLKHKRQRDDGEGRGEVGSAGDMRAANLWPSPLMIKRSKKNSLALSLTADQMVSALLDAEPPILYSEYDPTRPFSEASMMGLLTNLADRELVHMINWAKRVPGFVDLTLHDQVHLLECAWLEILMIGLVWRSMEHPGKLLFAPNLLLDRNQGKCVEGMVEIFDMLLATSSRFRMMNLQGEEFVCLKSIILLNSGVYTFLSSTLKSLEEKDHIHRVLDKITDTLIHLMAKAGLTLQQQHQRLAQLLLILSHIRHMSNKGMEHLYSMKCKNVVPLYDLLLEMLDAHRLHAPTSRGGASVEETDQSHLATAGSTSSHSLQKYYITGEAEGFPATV
Chain of ER in MCF-7 cells (P03372 whole entry): as above

| SMILES | DC50 ([1]; 16 hrs treatment) [nM] | DC50 ([2]; 16 hrs treatment) [nM] | Dmax [2, 5] [%] | Dmax [1, 7] [%] | Dmax [1, 3] [%] | T47D Dmax [2, 4] | MCF7 Dmax ([1]; MCF-7, maximal ER degradation, 16 hrs treatment) | Dmax [2, 6] [%] |
| --- | --- | --- | --- | --- | --- | --- | --- | --- |
| O=C1CC[C@@H](N2Cc3cc4c(cc3C2=O)OC[C@H]2CN(CC3COC5(C3)CN(c3ccc([C@H]6c7ccc(O)cc7CC[C@H]6c6ccccc6)cc3)C5)CCN42)C(=O)N1 (stereo in doubt) [Compound A8, (3R)-3-((4aR)-3-((2-(4-((1S,2R)-6-hydroxy-2-phenyl-1,2,3,4-tetrahydronaphthalen-1-yl)phenyl)-5-oxa-2-azaspiro[3,4]octan-7-yl)methyl)-8-oxo-1,2,3,4,4a,5,8,10-octahydro-9H-pyrazino[1′,2′: 4,5][1,4]oxazino[2,3-f]isoindol-9-yl)piperidine-2,6-dione] | < 1 | < 1 | – | – | > 75 | A (“A”: >=75%) | – | – |
| O=C1CC[C@H](N2Cc3cc4c(cc3C2=O)OCC42CCN(C[C@@H]3COC4(CCN(c5ccc([C@@H]6c7ccc(O)cc7CC[C@@H]6c6ccccc6)cc5)CC4)C3)CC2)C(=O)N1 [Compound A26, (3S)-3-(1′-((8-(4-((1R,2S)-6-hydroxy-2-phenyl-1,2,3,4-tetrahydronaphthalen-1-yl)-phenyl)-1-oxa-8-azaspiro[4.5]decan-3-yl)methyl)-7-oxo-5,7-dihydro-2H,6H-spiro[furo[2,3-f]isoindole-3,4′-piperidin]-6-yl)piperidine-2,6-dione] | 10 to 100 | 10 to 100 | – | – | – | C (“C”: 25-50%) | C (“C”: 25-50%) | – |
| COc1cc([C@@H]2c3ccc(O)cc3CC[C@@H]2c2ccccc2)c(F)cc1N1CCC2(CC1)CC(CN1CCN3c4ccc5c(c4OC[C@H]3C1)CN([C@H]1CCC(=O)NC1=O)C5=O)C2 (single isomer, unassigned) [Compound A103] | – | 10 to 100 | – | – | – | – | – | 50 to 75 |
| COc1cc(N2CCC(CN3CCC4(CC3)COc3cc5c(cc34)CN([C@H]3CCC(=O)NC3=O)C5=O)CC2)c(F)cc1[C@@H]1c2ccc(O)cc2CC[C@@H]1c1ccccc1 [Compound A122, (S)-3-(1′-((1-(2-fluoro-4-((1S,2S)-6-hydroxy-2-phenyl-1,2,3,4-tetrahydronaphthalen-1-yl)-5-methoxyphenyl)piperidin-4-yl)methyl)-7-oxo-5,7-dihydro-2H,6H-spiro[furo[2,3-f]isoindole-3,4′-piperidin]-6-yl)piperidine-2,6-dione] | < 1 | < 1 | – | – | 50 to 75 | – | – | 50 to 75 |
| O=C1CC[C@H](N2Cc3c(ccc4c3OC[C@H]3CN(CC5CCC6(CC5)CN(c5ccc([C@@H]7c8ccc(O)cc8CC[C@@H]7c7ccccc7)cn5)C6)CCN43)C2=O)C(=O)N1 (single isomer, unassigned) [Compound A123, (S)-3-((R)-7-((2-(5-((1S,2S)-6-hydroxy-2-phenyl-1,2,3,4-tetrahydronaphthalen-1-yl)pyridin-2-yl)-2-azaspiro[3.5]nonan-7-yl)methyl)-1-oxo-1,3,5,5a,6,7,8,9-octahydro-2H-pyrazino[1′,2′: 4,5][1,4]oxazino[2,3-e]isoindol-2-yl)piperidine-2,6-dione] | < 1 | < 1 | – | – | – | – | – | – |
| COc1cc([C@H]2c3ccc(O)cc3CC[C@H]2c2ccccc2)c(F)cc1N1CCC2(CC1)CC(CN1CCN3c4ccc5c(c4OC[C@H]3C1)CN([C@H]1CCC(=O)NC1=O)C5=O)C2 (single isomer, unassigned) [Compound A102] | – | 1 to 10 | – | – | – | – | – | > 75 |
| COc1cc(N2CCC(CN3CCN4c5cc6c(cc5OC[C@@H]4C3)C(=O)N([C@H]3CCC(=O)NC3=O)C6)CC2)ccc1[C@H]1c2ccc(O)cc2CC[C@H]1c1ccccc1 (single isomer, unassigned) [Compound A21] | 10 to 100 | 1 to 10 | 50 to 75 | – | 50 to 75 | – | – | – |
| O=C1CC[C@H](N2Cc3cc4c(cc3C2=O)OCC42CCN(C[C@H]3COC4(CCN(c5ccc([C@H]6c7ccc(O)cc7CC[C@H]6c6ccccc6)cc5)CC4)C3)CC2)C(=O)N1 [Compound A22, (S)-3-(1′-(((S)-8-(4-((1S,2R)-6-hydroxy-2-phenyl-1,2,3,4-tetrahydronaphthalen-1-yl)-phenyl)-1-oxa-8-azaspiro[4.5]decan-3-yl)methyl)-7-oxo-5,7-dihydro-2H,6H-spiro[furo[2,3-f]isoindolc-3,4′-pipcridin]-6-yl)pipcridinc-2,6-dione] | < 1 | < 1 | – | – | 50 to 75 | – | – | 25 to 50 |
| O=C1CC[C@H](N2Cc3c(ccc4c3OCC43CCN(CCCOC4CN(c5ccc([C@@H]6c7ccc(O)cc7CC[C@@H]6c6ccccc6)cc5)C4)CC3)C2=O)C(=O)N1 [Compound A183, (S)-3-(1′-(3-((1-(4-((1R,2S)-6-hydroxy-2-phenyl-1,2,3,4-tetra-hydronaphthalen-1-yl)phenyl)-azetidin-3-yl)oxy)propyl)-6-oxo-6,8-dihydro-2H,7H-spiro [furo[2,3-e]isoindole-3,4′-piperidin]-7-yl)piperidine-2,6-dione] | < 1 | – | – | – | 50 to 75 | – | – | – |
| COc1cc(N2CCC3(CC2)CC(CN2CCC4(CC2)COc2cc5c(cc24)CN([C@H]2CCC(=O)NC2=O)C5=O)C3)ccc1[C@@H]1c2ccc(O)cc2CC[C@@H]1c1ccccc1 [Compound A162, (S)-3-(1′-((7-(4-((1S,2S)-6-hydroxy-2-phenyl-1,2,3,4-tetrahydronaphthalen-1-yl)-3-methoxyphenyl)-7-azaspiro [3.5]nonan-2-yl)methyl)-7-oxo-5,7-dihydro-2H,6H-spiro[furo [2,3-f]isoindole-3,4′-piperidin]-6-yl)piperidine-2,6-dione] | < 1 | – | – | – | 25 to 50 | – | – | – |

Continued, in another order:

| DC50 ([1]; 16 hrs treatment) [nM] | DC50 ([2]; 16 hrs treatment) [nM] | Dmax [2, 5] [%] | Dmax [1, 7] [%] | SMILES | Dmax [1, 3] [%] | T47D Dmax [2, 4] | MCF7 Dmax ([1]; MCF-7, maximal ER degradation, 16 hrs treatment) | Dmax [2, 6] [%] |
| --- | --- | --- | --- | --- | --- | --- | --- | --- |
| – | 1 to 10 | > 75 | – | O=C1CC[C@H](NC(=O)c2ccc3c(n2)OC[C@H]2CN(CC4CC5(CCN(c6ccc([C@@H]7c8ccc(O)cc8CC[C@@H]7c7ccccc7)cn6)CC5)C4)CCN32)C(=O)N1 (single isomer, unassigned) [Compound A115] | – | – | – | – |
| < 1 | 1 to 10 | > 75 | > 75 | O=C1CC[C@H](N2Cc3c(ccc4c3OC[C@H]3CN(CC5CC6(CCN(c7ncc([C@@H]8c9ccc(O)cc9CC[C@@H]8c8ccccc8)cn7)CC6)C5)CCN43)C2=O)C(=O)N1 (single isomer, unassigned) [Compound A140] | – | – | – | – |
| < 1 | < 1 | 50 to 75 | 50 to 75 | COc1cc(N2CCC3(CC2)CC(CN2CCC(c4ccc(N[C@H]5CCC(=O)NC5=O)cc4)CC2)C3)ccc1[C@@H]1c2ccc(O)cc2CC[C@@H]1c1ccccc1 (single isomer, unassigned) [Compound A96] | – | – | – | – |
| < 1 | 10 to 100 | 25 to 50 | < 25 | COc1cc(N2CCC(CN3CCC(c4ccc(N[C@@H]5CCC(=O)NC5=O)cc4F)CC3)CC2)ccc1[C@H]1c2ccc(O)cc2CC[C@H]1c1ccccc1 (stereo in doubt) [Compound A84, (R)-3-((3-fluoro-4-(1-((1-(4-((1R,2R)-6-hydroxy-2-phenyl-1,2,3,4-tetrahydronaphthalen-1-yl)-3-methoxyphenyl)piperidin-4-yl)methyl)piperidin-4-yl)-phenyl)amino)piperidine-2,6-dione formate] | – | – | – | – |
| < 1 | 1 to 10 | 50 to 75 | 50 to 75 | COc1cc(N2CCC3(CC2)CC(CN2CCC(c4ccc(N[C@H]5CCC(=O)NC5=O)cc4F)CC2)C3)ccc1[C@@H]1c2ccc(O)cc2CC[C@@H]1c1ccccc1 (single isomer, unassigned) [Compound A105] | – | – | – | – |
| < 1 | 1 to 10 | > 75 | > 75 | O=C1CC[C@H](N2Cc3c(ccc4c3OC[C@H]3CN(CC5CC6(CCN(c7ccc([C@H]8c9ccc(O)cc9CC[C@H]8c8ccccc8)cc7F)CC6)C5)CCN43)C2=O)C(=O)N1 (single isomer, unassigned) [Compound A147] | – | – | – | – |
| < 1 | < 1 | 25 to 50 | 25 to 50 | COc1cc(N2CCC(CN3CCC(c4ccc(N[C@@H]5CCC(=O)NC5=O)cc4)CC3)CC2)ccc1[C@@H]1c2ccc(O)cc2CC[C@@H]1c1ccccc1 (single isomer, unassigned) [Compound A87] | – | – | – | – |
| – | > 100 | < 25 | – | O=C1CC[C@H](NC(=O)c2ccc3c(n2)OC[C@H]2CN(CC4CC5(CCN(c6ccc([C@H]7c8ccc(O)cc8CC[C@H]7c7ccccc7)cn6)CC5)C4)CCN32)C(=O)N1 (single isomer, unassigned) [Compound A114] | – | – | – | – |
| 1 to 10 | 10 to 100 | 25 to 50 | < 25 | COc1cc(N2CCC(CN3CCC(c4ccc(N[C@H]5CCC(=O)NC5=O)cc4)CC3)CC2)ccc1[C@@H]1c2ccc(O)cc2CC[C@@H]1c1ccccc1 (single isomer, unassigned) [Compound A86] | – | – | – | – |
| 10 to 100 | 10 to 100 | 25 to 50 | 25 to 50 | COc1cc(N2CCC3(CC2)CC(CN2CCC(c4ccc(N[C@@H]5CCC(=O)NC5=O)cc4)CC2)C3)c(F)cc1[C@H]1c2ccc(O)cc2CC[C@H]1c1ccccc1 (single isomer, unassigned) [Compound A46] | – | – | – | – |
| 10 to 100 | – | – | 25 to 50 | COc1c([C@H]2c3ccc(O)cc3CC[C@H]2c2ccccc2)ccc(N2CCC(CN3CCN4c5cc6c(cc5OC[C@@H]4C3)C(=O)N([C@H]3CCC(=O)NC3=O)C6)CC2)c1F (single isomer, unassigned) [Compound A170] | – | – | – | – |
